According to US12419951B2, “Preparation of zinc risedronate micro/nano adjuvant and use thereof as vaccine adjuvant” (priority 2019, dated 2025):

Tested on: hepatitis B therapeutic protein
Details: same risedronate content as Zn-risedronic acid (1/0.125) group
Procedure: Using the experimental procedure described in Example 4, mice were immunized with zinc risedronate adjuvant in combination with hepatitis B therapeutic protein by intramuscular injection, and serum antibody titers were detected. The specific method was as follows:
Experimental animals: Balb/C mice, 6-8 weeks, 5 mice/group, female.
Immunization protocol: antigen 1.2 μg/mouse, adjuvant and hepatitis B therapeutic protein were mixed at a volume ratio of 1:1 to form a vaccine, and then injected intramuscularly to mice, 150 μL per mouse, and 75 μL on each hind leg. The immunization was performed on the 0th, 2nd, 3rd, 4th, 5th and 6th week, 1.2 μg of antigen per mouse, blood samples were collected from eye socket after the 6th week, and ELISA was used to determine the levels of specific antibodies in serum.

Compound: O=P(O)(O)C(O)(Cc1cccnc1)P(=O)(O)O [sodium risedronate, Risedronate sodium]
- difference in humoral immune response compared with aluminum adjuvant: no statistically significant difference
- humoral immune stimulation effect: a certain humoral immune stimulation effect
